Results on 33 compounds are retold here after patent US5837718A, “Imidazole-derivatives having agonistic or antagonistic activity on the histamine H3-receptor” (Seed Capital Investment (SCI) B.V., priority 1995, dated 1998).

The structures appear in SMILES notation. Where two headings read alike, the source gives them in different places.

What all share (format): cell-based
The target of experiment [1] is T1, histamine H3 -receptor (Cavia porcellus, UniProt Q9JI35).
T1 construct: ileum guinea pig; from tissue; host or cells: guinea pig ileum
The experiment can be described thus: Antagonistic activity on the H3-receptor, ileum guinea pig. Here is the method:
(§1) The agonistics and antagonistics activities on the H3 -receptor of the various compounds were determined compared to histamine. The test methods used therefor are described in Van der Werf et al., Agents and Actions 20, 3/4 (1987) p. 239-243 and Menkveld et al., European Journal of Pharmacology, 186 (1990) p. 343-347.

Experiment [2] relates to histamine H3 -receptor. In words: Antagonistic activity on the H3-receptor, test preparation not stated. Conditions: Example 6 table, test method not stated. Here is the method:
as §1

Experiment [3] concerns histamine H3 -receptor. The experiment can be described thus: Agonistic activity on the H3-receptor, test preparation not stated. The settings on record: in words. Here is the method: as §1
For experiment [4], the target named is T1, histamine H3 -receptor. The experiment can be described thus: Agonistic activity on the H3-receptor, ileum guinea pig. Conditions: Table 3, agonistic activity, read-out: pD2 (converted). Here is the method: (§2) The agonistics and antagonistics activities on the H3 -receptor of the various compounds were determined compared to histamine.
For experiment [5], the target named is T2, histamine H3 -receptor (Rattus norvegicus, UniProt Q9QYN8).
T2 construct: Van der Werf et al., Agents and Actions 20, 3/4 (1987) p; 239-243; from tissue
In words: Antagonistic activity on the H3-receptor, rat cortex. Conditions: Table 2, antagonistic activity, read-out: pA2 (converted). As for the experimental part: as §1

Experiment [6] concerns the target T2, histamine H3 -receptor. In words: Agonistic activity on the H3-receptor, rat cortex. Conditions: Table 3, agonistic activity, read-out: pD2 (converted). Here is the method:
as §2

Where [7] appears, read: Table 2, antagonistic activity, ileum guinea pig, read-out: pA2 (converted).

T1 sequence (Q9JI35 whole entry): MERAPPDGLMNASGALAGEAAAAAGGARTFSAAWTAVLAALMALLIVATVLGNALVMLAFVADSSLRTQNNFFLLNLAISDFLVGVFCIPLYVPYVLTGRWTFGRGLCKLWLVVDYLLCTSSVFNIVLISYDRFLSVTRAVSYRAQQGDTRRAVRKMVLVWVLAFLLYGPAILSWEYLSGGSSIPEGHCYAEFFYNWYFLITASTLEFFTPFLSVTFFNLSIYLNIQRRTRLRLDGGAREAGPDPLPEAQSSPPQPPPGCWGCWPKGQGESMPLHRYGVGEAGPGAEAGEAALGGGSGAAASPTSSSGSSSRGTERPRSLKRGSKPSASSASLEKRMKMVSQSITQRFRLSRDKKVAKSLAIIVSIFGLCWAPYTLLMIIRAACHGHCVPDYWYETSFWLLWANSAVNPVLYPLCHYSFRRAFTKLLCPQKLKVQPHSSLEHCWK
T2 sequence (Q9QYN8 whole entry): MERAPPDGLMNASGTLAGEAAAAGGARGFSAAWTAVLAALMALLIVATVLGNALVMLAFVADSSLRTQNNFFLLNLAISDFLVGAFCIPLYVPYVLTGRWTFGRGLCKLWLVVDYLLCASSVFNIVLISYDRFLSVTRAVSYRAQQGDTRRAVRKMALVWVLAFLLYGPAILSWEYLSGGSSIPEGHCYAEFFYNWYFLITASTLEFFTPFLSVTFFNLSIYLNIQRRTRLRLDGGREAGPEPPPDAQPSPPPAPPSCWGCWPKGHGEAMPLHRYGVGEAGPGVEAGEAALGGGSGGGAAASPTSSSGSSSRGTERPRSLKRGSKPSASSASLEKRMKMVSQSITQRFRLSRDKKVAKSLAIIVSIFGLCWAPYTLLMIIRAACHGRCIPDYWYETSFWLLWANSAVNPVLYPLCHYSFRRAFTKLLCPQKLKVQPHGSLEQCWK

On to `NC(=NCCCCc1ccccc1)SCCCc1cnc[nH]1` [VUF 4571, S-[3-(4(5)-imidazolyl)propyl]-N-(4-phenylbutyl)isothiourea], for which the Kb on histamine H3 -receptor [1] (setting [7]) was 3.98 nM. Turning to `N=C(NCCc1ccc(Br)cc1)SCCCc1c[nH]cn1` [VUF 4598, N-[2-(4-bromophenyl)ethyl]-S-[3-(4(5)-imidazolyl)propyl] isothiourea.2HBr], in the experiment with histamine H3 -receptor [2], the pA2 worked out at 9.0. Same read-out and setting: the value for `N=C(NCc1ccc(F)cc1)SCCCc1c[nH]cn1` [VUF 4650, N-(4-fluorobenzyl)-S-[3-(4(5)-imidazolyl)propyl]isothiourea.2HBr] was 9.38; that for `N=C(NCc1ccc(Br)cc1)SCCCc1c[nH]cn1` [VUF 4651, N-(4-bromobenzyl)-S-[3-(4(5)-imidazolyl)propyl]isothiourea.2HBr] was 9.77.

For the compound `N=C(NCc1ccc(I)cc1)SCCCc1c[nH]cn1` [VUF 4652, N-(4-iodobenzyl)-S-[3-(4(5)-imidazolyl)propyl]isothiourea.2HBr], in the experiment with histamine H3 -receptor [2], the pA2 is listed as 9.21. The compound `Cc1ccc(CNC(=N)SCCCc2c[nH]cn2)cc1` [VUF 4653, S-[3-(4(5)-imidazolyl)propyl]-N-(4-methylbenzyl) isothiourea.2HBr] displayed a pA2 in the experiment on histamine H3 -receptor [2] of 9.36.

In the experiment with histamine H3 -receptor [2], `COc1ccc(CNC(=N)SCCCc2c[nH]cn2)cc1` [VUF 4654] yielded a pA2 of 9.39. For `N=C(NCc1ccc(Cl)c(Cl)c1)SCCCc1c[nH]cn1` [VUF 4656, N-(3,4-dichlorobenzyl)-S-[3-(4(5)-imidazolyl)propyl] isothiourea.2HBr], the pA2 in the experiment on histamine H3 -receptor [2] is 8.96.

As for `N=C(NCCc1ccc(Cl)cc1)SCCCc1c[nH]cn1` [VUF 4657], the pA2 in the experiment with histamine H3 -receptor [2] was determined as 9.2. `Cc1ccc(CCNC(=N)SCCCc2c[nH]cn2)cc1` [VUF 4658, S-[3-(4(5)-imidazolyl)propyl]-N-[2-(4-methylphenyl)ethyl]isothiourea.2HBr] yielded a pA2 in the experiment with histamine H3 -receptor [2] of 8.4. The same measure, in the same setting: as for `COc1ccc(CCNC(=N)SCCCc2c[nH]cn2)cc1` [VUF 4659], the figure is 8.3; as for `N=C(NCc1ccccc1)SCCCCc1c[nH]cn1` [VUF 4661, N-benzyl-S-[4-(4(5)-imidazolyl)butyl]isothiourea dipicrate], 8.72. Still for that read-out and setting: the value for `N=C(NCCc1ccccc1)SCCCCc1c[nH]cn1` [VUF 4662, N-(2-phenylethyl)-S-[4-(4(5)-imidazolyl)butyl]isothiourea dipicrate] was 8.13.

For `N=C(N)SCCc1c[nH]cn1` [VUF 8325, S-[2-(4-imidazolyl)ethyl]isothiourea], in the experiment with histamine H3 -receptor [3], the agonistic activity entry is on record as “strong agonistic activity”. Besides, the EC50 at histamine H3 -receptor [4] is 7.94 nM. Consider `N=C(Nc1ccccc1)SCCc1c[nH]cn1` [VUF 8397], for which the Kb on histamine H3 -receptor [5] is 100 nM. Consider `N=C(NCCSCc1ccccc1)SCCc1c[nH]cn1` [VUF 8404], for which the Kb at histamine H3 -receptor [1] is 39.8 nM. `N=C(NCCCc1c[nH]cn1)NCCSCc1ccccc1` [VUF 8405]: the Kb at histamine H3 -receptor [1] (setting [7]) is 12.6 nM.

On to `N=C(NCCSC(c1ccccc1)c1ccccc1)SCCc1c[nH]cn1` [VUF 8409], for which the Kb on histamine H3 -receptor [1] (setting [7]) is 251 nM.

`N=C(NCCSCc1ccccc1)SCCCc1c[nH]cn1` [VUF 8414, N-[2-(benzylthio)ethyl]-S-[3-(imidazol-4-yl)propyl]isothiourea]: the Kb at histamine H3 -receptor [1] (setting [7]) is 2.51 nM. Regarding `CNC(=N)SCCc1c[nH]cn1` [VUF 8621], the EC50 at histamine H3 -receptor [4] was 50.1 nM.

As to `N=C(NCCc1c[nH]cn1)Nc1ccccc1` [VUF 9006, N-[2-(imidazol-4-yl)ethyl]-N'-phenyl guanidine dipicrate], the Kb at histamine H3 -receptor [1] (setting [7]) was 1580 nM.

In the case of `N=C(NCCc1ccccc1)NCCc1cnc[nH]1` [VUF 9007, N-[2-(imidazol-4-yl)ethyl]-N'-phenyl-ethylguanidine dipicrate], the Kb at histamine H3 -receptor [1] (setting [7]) is 501 nM. Turning to `N=C(NCc1ccccc1)SCCc1c[nH]cn1` [VUF 9028, N-benzyl-S-[2-(imidazol-4-yl)ethyl]isothiourea dipicrate], the Kb on histamine H3 -receptor [1] is 15.8 nM. Still for that read-out and setting: the value for `N=C(NCCc1ccccc1)SCCc1c[nH]cn1` [VUF 9029, S-[2-(imidazol-4-yl)ethyl]-N-(2-phenylethyl)-isothiourea] was 10 nM; that for `N=C(NCCCc1ccccc1)SCCc1c[nH]cn1` [VUF 9030] was 25.1 nM; that for `N=C(NCCCCc1ccccc1)SCCc1c[nH]cn1` [VUF 9031] was 20 nM. As to `CN=C(NCCc1ccccc1)SCCc1c[nH]cn1` [VUF 9051], the Kb on histamine H3 -receptor [1] is 15.8 nM. The same measure, in the same setting: the value for `N=C(NCc1ccccc1)SCCCc1c[nH]cn1` [VUF 9107, N-benzyl-S-[3-(4(5)-imidazolyl)propyl]isothiourea] was 1.58 nM. `N=C(NCCc1ccccc1)SCCCc1c[nH]cn1` [VUF 9151, S-[3-(4(5)-imidazolyl)propyl]-N-(2-phenylethyl)isothiourea] had a Kb on histamine H3 -receptor [1] of 1.58 nM. In the case of `N=C(NCCCc1ccccc1)SCCCc1c[nH]cn1` [VUF 9152, S-[3-(4(5)-imidazolyl)propyl]-N-(3-phenylpropyl)isothiourea], the Kb on histamine H3 -receptor [1] was 5.01 nM. Same read-out and setting: as for `NC(=NCc1ccc(Cl)cc1)SCCCc1cnc[nH]1` [VUF 9153, S-[3-(4(5)-imidazolyl)propyl]-N-(4-chlorobenzyl)isothiourea], the figure is 0.126 nM. On to `N=C(NCC1CCCCC1)SCCCc1c[nH]cn1` [VUF 9163, N-cyclohexylmethyl-S-[3-(4(5)-imidazolyl)propyl]isothiourea], for which the Kb on histamine H3 -receptor [1] (setting [7]) was 1.58 nM. `N=C(N)NCCc1c[nH]cn1` [VUF 83100]: on histamine H3 -receptor [6], the EC50 is 39.8 nM.

Broadly, the pA2 is the negative logarithm of the molar antagonist concentration that doubles the agonist concentration needed for the same response. Read a high pA2 as higher antagonist potency.
